Read-outs that look alike come from different tables or passages of the source.
Legend:
MCF-7 = experiment: MTT assay, MCF-7 cells; assay type: cell-based, human; conditions: read-out: IC50 values ± SD, MCF-7
Source text: (§1) The impact of acridine spiro derivatives 6–10 (Figure 13) on the metabolic activity of various tumor cell lines HCT-116 (human colorectal carcinoma), Jurkat (human leukemia cells), HeLa (human cervical adenocarcinoma), MDA-MB-231, and MCF-7 (human breast adenocarcinoma), and normal cell lines COS-7 (monkey kidney cells) and BJ-5ta (skin fibroblasts) was investigated using the MTT assay. This assay measures the conversion of yellow 3-(4,5-dimethylthiazol-2-yl)-2,5-diphenyltetrazolium bromide (MTT) to insoluble purple formazan by metabolically active cells. The antiproliferative activities of the tested compounds were determined based on the results from the MTT assay, and the inhibitory concentration values (IC50) are presented in Table 5.
(§2) The human cancer cell lines employed in this study were sourced from reputable institutions, including the American Type Culture Collection (ATCC; Manassas, VA, USA) and the European Collection of Authenticated Cell Cultures (ECACC, Salisbury, UK). Specifically, HeLa (93021013, human cervical adenocarcinoma), HCT116 (CCL-247TM, human colorectal carcinoma), and Jurkat (88042803, human leukemic T-cell lymphoma) were cultured in RPMI 1640 medium (Biosera, Kansas City, MO, USA). In contrast, MCF-7 (HTB-22TM, human breast adenocarcinoma, ER+), MDA-MB-231 (HTB-26TM, human breast adenocarcinoma, ER−), and COS-7 (CRL-1651TM, kidney fibroblasts) were nurtured in high-glucose Dulbecco’s Modified Eagle Medium (DMEM) supplemented with sodium pyruvate (Biosera). Furthermore, BJ-5ta (CRL-4001TM, human dermal fibroblasts) was cultured in a composite medium of high-glucose DMEM and M199 (4:1) (Biosera), supplemented with Hygromycin B (0.01 mg/mL; Merck, Darmstadt, Germany). All culture media were enriched with a 10% fetal bovine serum (FBS; Gibco, Thermo Scientific, Rockford, IL, USA) and an antibiotic/antimycotic solution (Merck) to ensure optimal growth conditions. The cells were meticulously maintained within a humidified environment containing 5% CO2 at 37 °C. Regular screenings for mycoplasma contamination were conducted using Hoechst 33342 staining (Merck), confirming the integrity of the cell lines.
(§3) To assess the antiproliferative impact of the synthesized compounds 6–10, their half-maximal inhibitory concentration (IC50) and the MTT colorimetric assay were employed. MDA-MB-231 and MCF-7 cells were seeded into 96-well microplates (SARSTEDT, Nümbrecht, Germany) at a density of 5 × 10^3 cells per well. After 24 h of cell seeding, various concentrations (100, 50, and 10 µmol/L) of acridine derivatives 6–10 were introduced, alongside cisplatin (utilized as a reference) at concentrations of 5, 10, 20, 50, and 100 µmol/L. Subsequent to 24, 48, and 72 h of treatment, the cells in each well underwent incubation with MTT (5 mg/mL, Sigma-Aldrich Chemie, Steinheim, Germany) for 4 h at 37 °C in the dark. During this period, mitochondrial oxidoreductases metabolized MTT, forming insoluble formazan. Following this, 100 µL of SDS (10% […]) was added to dissolve the formazan crystals, and the cells were incubated for an additional 12 h. Absorbance at 540 nm was measured using the automated Cytation™ 3 Cell Imaging Multi-Mode Reader (Biotek, Winooski, VT, USA). Each test was performed in triplicate, and three independent experiments were conducted to ensure precision and reliability.

MDA-MB-231 = experiment: MTT assay, MDA-MB-231 cells; assay type: cell-based, human; conditions: read-out: IC50 values ± SD, MDA-MB-231
Source text: as §1, §2, §3

HeLa = experiment: MTT assay, HeLa cells; assay type: cell-based, human; conditions: 72 h of incubation, read-out: IC50 values ± SD, HeLa
Source text: as §1, §2, §3

HCT-116 = experiment: MTT assay, HCT-116 cells; assay type: cell-based, human; conditions: MTT, 72 h of incubation, read-out: IC50 values ± SD, HCT-116
Source text: as §1, §2, §3

Jurkat = experiment: MTT assay, Jurkat cells; assay type: cell-based, human; conditions: MTT, 72 h of incubation, read-out: IC50 values ± SD, Jurkat
Source text: as §1, §2, §3

COS-7 = experiment: MTT assay, COS-7 normal cells; assay type: cell-based, monkey; conditions: normal cell line, read-out: IC50 values ± SD, COS-7
Source text: as §1, §2, §3

BJ-5ta = experiment: MTT assay, BJ-5ta normal fibroblasts; assay type: cell-based, human; conditions: 72 h of incubation, normal cell line, read-out: IC50 values ± SD, BJ-5ta
Source text: as §1, §2, §3

[1] = Homo sapiens, MCF7, 72 h of incubation
[2] = Homo sapiens, MDA-MB-231, 72 h of incubation
[3] = Primates, COS-7, 72 h of incubation

Row | IC50 (MCF-7; [1]) [µM] | IC50 (MDA-MB-231; [2]) [µM] | IC50 (HeLa; Homo sapiens, HeLa) [µM] | IC50 (HCT-116; Homo sapiens, HCT-116) [µM] | IC50 (Jurkat; Homo sapiens, Jurkat) [µM] | melting point | Structure (SMILES) | IC50 (MCF-7; 72 h of incubation) [µM] | IC50 (MDA-MB-231; 72 h of incubation) [µM] | IC50 (HeLa) [µM] | IC50 (HCT-116) [µM] | IC50 (Jurkat) [µM] | IC50 (COS-7; 72 h of incubation) [µM] | IC50 (BJ-5ta) [µM] | IC50 (COS-7; [3]) [µM] | IC50 (BJ-5ta; Homo sapiens, Fibroblast) [µM]
1 |  |  |  |  |  |  | N.N.[Cl][Pt][Cl] [Cisplatin, cisplatin, reference compound] | 26.5 ± 3.19 | 7.1 ± 0.9 | 35.4 ± 2.5 | 12.4 ± 2.1 | 8.18 ± 1.6 | 24.6 ± 1.4 | 36 ± 1.87 |  | 
2 | > 100 | > 100 | > 100 | > 100 | > 100 | 229 to 231 °C (dec.) | CCCC1S/C(=N\N2C(=O)C(C#N)=CC23c2ccccc2Nc2ccccc23)N(c2cccc(OC)c2)C1=O (centres unmarked) [10c, 1′-{[(2Z)-3-(3-Methoxyphenyl)-4-oxo-5-propyl-1,3-thiazolidin-2-ylidene]amino}-5′-oxo-1′,5′-dihydro-10H-spiro[acridine-9,2′-pyrrole]-4′-carbonitrile] |  |  |  |  |  |  |  | > 100 | > 100
3 | 32.5 ± 6.5 | > 100 | 62.5 ± 14 | 46.6 ± 2.66 | > 100 | 249 to 252 °C (dec.) | N#CC1=CC2(c3ccccc3Nc3ccccc32)N(/N=C2\SCC(=O)N2c2ccc(F)cc2)C1=O [7d, 1′-{[(2Z)-3-(4-Fluorophenyl)-4-oxo-1,3-thiazolidin-2-ylidene]amino}-5′-oxo-1′,5′-dihydro-10H-spiro[acridine-9,2′-pyrrole]-4′-carbonitrile] |  |  |  |  |  |  |  | > 100 | > 100
4 | 8.52 ± 0.79 | 7.85 ± 0.97 | 5.97 ± 0.15 | 5.46 ± 0.02 | 5.64 ± 0.09 | 269 to 272 °C (dec.) | CCOC(=O)/C=C1\S/C(=N\N2C(=O)C(C#N)=CC23c2ccccc2Nc2ccccc23)N(c2ccc(F)cc2)C1=O [8d, Ethyl 2-[(2Z,5Z)-2-({4′-cyano-5′-oxo-1′,5′-dihydro-10H-spiro[acridine-9,2′-pyrrol]-1′-yl}imino)-3-(4-fluorophenyl)-4-oxo-1,3-thiazolidin-5-ylidene]acetate] |  |  |  |  |  |  |  | 9.45 ± 0.24 | 7.32 ± 0.35
5 | > 100 | > 100 | > 100 | > 100 | 34.4 ± 2.13 | 170 to 173 °C (dec.) | CC1S/C(=N\N2C(=O)C(C#N)=CC23c2ccccc2Nc2ccccc23)N(c2ccc([N+](=O)[O-])cc2)C1=O (centres unmarked) [9e, 1′-{[(2Z)-5-Methyl-3-(4-nitrophenyl)-4-oxo-1,3-thiazolidin-2-ylidene]amino}-5′-oxo-1′,5′-dihydro-10H-spiro[acridine-9,2′-pyrrole]-4′-carbonitrile] |  |  |  |  |  |  |  | > 100 | > 100
6 | > 100 | > 100 | 67.2 ± 8.65 | 14.3 ± 5.09 | 11.6 ± 4.3 | 194 to 195 °C (dec.) | N#CC1=CC2(c3ccccc3Nc3ccccc32)N(NC(=S)Nc2ccccc2)C1=O [6a, 3-{4′-Cyano-5′-oxo-1′,5′-dihydro-10H-spiro[acridine-9,2′-pyrrol]-1′-yl}-1-phenylthiourea] |  |  |  |  |  |  |  | > 100 | 92.2 ± 1.6
7 | > 100 | > 100 | > 100 | > 100 | > 100 | 245 to 249 °C (dec.) | CC1S/C(=N\N2C(=O)C(C#N)=CC23c2ccccc2Nc2ccccc23)N(c2ccccc2)C1=O (centres unmarked) [9a, 1′-{[(2Z)-5-Methyl-4-oxo-3-phenyl-1,3-thiazolidin-2-ylidene]amino}-5′-oxo-1′,5′-dihydro-10H-spiro[acridine-9,2′-pyrrole]-4′-carbonitrile] |  |  |  |  |  |  |  | > 100 | > 100
8 | 45.14 ± 0.04 | 39.7 ± 2.4 | 54 ± 0.72 | 24.4 ± 1.31 | 22.1 ± 0.43 | 217 to 220 °C (dec.) | COc1cccc(N2C(=O)CS/C2=N\N2C(=O)C(C#N)=CC23c2ccccc2Nc2ccccc23)c1 [7c, 1′-{[(2Z)-3-(3-Methoxyphenyl)-4-oxo-1,3-thiazolidin-2-ylidene]amino}-5′-oxo-1′,5′-dihydro-10H-spiro[acridine-9,2′-pyrrole]-4′-carbonitrile] |  |  |  |  |  |  |  | 55.2 ± 5.38 | 38 ± 1.44
9 | 9.48 ± 0.27 | 8 ± 1.32 | 6.5 ± 0.43 | 5.45 ± 0.01 | 5.6 ± 0.04 | 183 to 186 °C (dec.) | CCOC(=O)/C=C1\S/C(=N\N2C(=O)C(C#N)=CC23c2ccccc2Nc2ccccc23)N(c2ccc([N+](=O)[O-])cc2)C1=O [8e, Ethyl 2-[(2Z,5Z)-2-({4′-cyano-5′-oxo-1′,5′-dihydro-10H-spiro[acridine-9,2′-pyrrol]-1′-yl}imino)-3-(4-nitrophenyl)-4-oxo-1,3-thiazolidin-5-ylidene]acetate] |  |  |  |  |  |  |  | 10.2 ± 0.5 | 7.07 ± 0.26
10 | 65.3 ± 1.89 | 40.8 ± 0.84 | 44 ± 5.88 | 32.7 ± 1.51 | 25.8 ± 2.58 | 237 to 240 °C (dec.) | COc1cccc(N2C(=O)C(C)S/C2=N\N2C(=O)C(C#N)=CC23c2ccccc2Nc2ccccc23)c1 (centres unmarked) [9c, 1′-{[(2Z)-3-(3-Methoxyphenyl)-5-methyl-4-oxo-1,3-thiazolidin-2-ylidene]amino}-5′-oxo-1′,5′-dihydro-10H-spiro[acridine-9,2′-pyrrole]-4′-carbonitrile] |  |  |  |  |  |  |  | > 100 | 32.7 ± 0.47
11 | 21.62 ± 0.1 | > 100 | 51.2 ± 3.32 | 41.3 ± 2.3 | > 100 | 241 to 243 °C (dec.) | N#CC1=CC2(c3ccccc3Nc3ccccc32)N(/N=C2\SCC(=O)N2c2ccccc2)C1=O [7a, 5′-Oxo-1′-{[(2Z)-4-oxo-3-phenyl-1,3-thiazolidin-2-ylidene]amino}-1′,5′-dihydro-10H-spiro[acridine-9,2′-pyrrole]-4′-carbonitrile] |  |  |  |  |  |  |  | > 100 | > 100
12 | > 100 | > 100 | > 100 | 41.5 ± 4.77 | 39.9 ± 5.19 |  | COc1ccc(NC(=S)NN2C(=O)C(C#N)=CC23c2ccccc2Nc2ccccc23)cc1 [6b, 3-{4′-Cyano-5′-oxo-1′,5′-dihydro-10H-spiro[acridine-9,2′-pyrrol]-1′-yl}-1-(4-methoxyphenyl)thiourea] |  |  |  |  |  |  |  | > 100 | > 100
13 | 12.8 ± 4.24 | 7.43 ± 0.72 | 16.9 ± 3.5 | 5.37 ± 0.01 | 5.67 ± 0.03 |  | CCOC(=O)/C=C1\S/C(=N\N2C(=O)C(C#N)=CC23c2ccccc2Nc2ccccc23)N(c2ccc(OC)cc2)C1=O [8b, Ethyl 2-[(2Z,5Z)-2-({4′-cyano-5′-oxo-1′,5′-dihydro-10H-spiro[acridine-9,2′-pyrrol]-1′-yl}imino)-3-(4-methoxyphenyl)-4-oxo-1,3-thiazolidin-5-ylidene]acetate] |  |  |  |  |  |  |  | 11.5 ± 1.74 | 6.82 ± 0.24

Reference: paper PMC10537105, “Derivatives Incorporating Acridine, Pyrrole, and Thiazolidine Rings as Promising Antitumor Agents” (Molecules, 2023)
